Earlier results in patent US20010034320A1, “NK1-receptor antagonists for treating restless legs syndrome” (priority 2000, published 2001).

Tested on: Restless Legs Syndrome (RLS)
Settings: for effect on RLS complaint in therapy trials: RLS patients, therapy trials described in the background
[1] = objective polysomnographic measuring parameters, daily doses 0.1-0.9 mg

Structure (SMILES) | quality of sleep, frequency of waking or periodic leg movements in sleep (PLMS) [1] | sleep latency [1] | perceived symptoms such as paraesthesia, compulsive movement and tiredness during the day (patient-reported, daily doses 0.1-0.9 mg, 4 open trials, 2 double-blind placebo-controlled trials and a single case study) | effect on RLS complaint in therapy trials
Clc1cccc(Cl)c1NC1=NCCN1 [clonidine, 2-(2,6-dichloroanilino)-4,5-dihydroimidazole] | not affected | shortened | (statistically significant) reduction | 
N[C@@H](Cc1ccc(O)c(O)c1)C(=O)O [L-dopa, levodopa] |  |  |  | significant alleviation of the complaint
NC(=O)N1c2ccccc2C=Cc2ccccc21 [Carbamazepine] |  |  |  | only partial relief from the complaint
